Measurements: PubChem BioAssay AID1845196 (Molecular Pharmacology Branch, DTP, NCI, 2023)

Tested on: 292921-168-R tumor spheroid viability
Test: Anticancer human tumor 292921-168-R patient-derived pancreatic carcinoma cell line growth inhibition
Settings: spheroids with HUVEC and MSC; for IC50: curve of first compound; for viability, T/C: stronger effect = lower value
How it was run: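 Single agents and combinations were tested on spheroids built from tumor cells plus HUVEC and hMSC, at half-log dilutions starting at or near clinical Cmax, else 10 microM; final DMSO 0.25% (v/v).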

[1] = second compound 1 µM, first compound 0.00949 µM
[2] = second compound 1 µM, first compound 0.03 µM
[3] = second compound 1 µM, first compound 0.0949 µM
[4] = second compound 1 µM, first compound 0.3 µM
[5] = second compound 1 µM, first compound 0.949 µM
[6] = second compound 1 µM, first compound 3 µM
[7] = second compound 3.16 µM, first compound 0.00949 µM
[8] = second compound 3.16 µM, first compound 0.03 µM
[9] = second compound 3.16 µM, first compound 0.0949 µM
[10] = second compound 3.16 µM, first compound 0.3 µM
[11] = second compound 3.16 µM, first compound 0.949 µM
[12] = second compound 3.16 µM, first compound 3 µM
[13] = second compound 10 µM, first compound 0.00949 µM
[14] = second compound 10 µM, first compound 0.03 µM
[15] = second compound 10 µM, first compound 0.0949 µM
[16] = second compound 10 µM, first compound 0.3 µM
[17] = second compound 10 µM, first compound 0.949 µM
[18] = second compound 10 µM, first compound 3 µM
[19] = second compound 31.6 µM, first compound 0.00949 µM
[20] = second compound 31.6 µM, first compound 0.03 µM
[21] = second compound 31.6 µM, first compound 0.0949 µM
[22] = second compound 31.6 µM, first compound 0.3 µM
[23] = second compound 31.6 µM, first compound 0.949 µM
[24] = second compound 31.6 µM, first compound 3 µM
[25] = second compound 100 µM, first compound 0.00949 µM
[26] = second compound 100 µM, first compound 0.03 µM
[27] = second compound 100 µM, first compound 0.0949 µM
[28] = second compound 100 µM, first compound 0.3 µM
[29] = second compound 100 µM, first compound 0.949 µM
[30] = second compound 100 µM, first compound 3 µM
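Note: spheroids exposed to compounds for 7 days.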

Structure (SMILES)	IC50 (second compound 1 µM) [µM]	IC50 (second compound 3.16 µM) [µM]	IC50 (second compound 10 µM) [µM]	IC50 (second compound 31.6 µM) [µM]	IC50 (second compound 100 µM) [µM]	viability, T/C [3] [%]	viability, T/C [4] [%]	viability, T/C [5] [%]	viability, T/C [6] [%]	viability, T/C [9] [%]	viability, T/C [10] [%]	viability, T/C [11] [%]	viability, T/C [12] [%]	viability, T/C [15] [%]	viability, T/C [16] [%]	viability, T/C [17] [%]	viability, T/C [18] [%]	viability, T/C [21] [%]	viability, T/C [22] [%]	viability, T/C [23] [%]	also measured
CNCc1ccc(-c2cc(-c3nc(-c4ccc(S(=O)(=O)C(C)C)cc4)cnc3N)on2)cc1 + Cn1nnc2c(C(N)=O)ncn2c1=O	0.205	0.212	0.214	0.178	0.136	70.7	37.7	23.1	9.35	67.9	41.9	22	12	71.7	40.2	20.4	9.2	72.2	31.6	17.2	viability, T/C [1]: 90%; viability, T/C [2]: 85.7%; viability, T/C [7]: 97.1%; viability, T/C [8]: 92.8%; viability, T/C [13]: 96.4%; viability, T/C [14]: 88.6%; viability, T/C [19]: 91.6%; viability, T/C [20]: 79.2%; viability, T/C [24]: 8.61%; viability, T/C [25]: 81.9%; viability, T/C [26]: 82.3%; viability, T/C [27]: 61.5%; viability, T/C [28]: 23.9%; viability, T/C [29]: 13.1%; viability, T/C [30]: 7.83%
Cc1sc2c(c1C)C(c1ccc(Cl)cc1)=NC(CC(=O)Nc1ccc(O)cc1)c1nnc(C)n1-2 (stereo not given) + Cn1nnc2c(C(N)=O)ncn2c1=O	2.43	1.98	1.91	1.7	0.904	117	99.9	74.6	44.5	113	111	68.9	39.2	111	89	77.3	33.9	109	102	67.4	viability, T/C [1]: 109%; viability, T/C [2]: 111%; viability, T/C [7]: 109%; viability, T/C [8]: 117%; viability, T/C [13]: 112%; viability, T/C [14]: 115%; viability, T/C [19]: 107%; viability, T/C [20]: 114%; viability, T/C [24]: 32.9%; viability, T/C [25]: 90.3%; viability, T/C [26]: 106%; viability, T/C [27]: 95.3%; viability, T/C [28]: 89.1%; viability, T/C [29]: 48.3%; viability, T/C [30]: 16.1%
Cn1ncnc1[C@H]1c2n[nH]c(=O)c3cc(F)cc(c23)N[C@@H]1c1ccc(F)cc1 + Cn1nnc2c(C(N)=O)ncn2c1=O	0.393	0.439	0.143	0.019	< 0.00949	73.8	58.8	27.7	9.76	73	59.5	32	11.1	55.8	39.2	23.3	9.97	31.9	24	15.8	viability, T/C [1]: 88.4%; viability, T/C [2]: 81.3%; viability, T/C [7]: 81.1%; viability, T/C [8]: 82%; viability, T/C [13]: 75.1%; viability, T/C [14]: 68.1%; viability, T/C [19]: 58.4%; viability, T/C [20]: 44.4%; viability, T/C [24]: 8.83%; viability, T/C [25]: 24.2%; viability, T/C [26]: 19.3%; viability, T/C [27]: 17.4%; viability, T/C [28]: 14.6%; viability, T/C [29]: 11.7%; viability, T/C [30]: 7.45%
O=C(c1cc(Cc2n[nH]c(=O)c3ccccc23)ccc1F)N1CCN(C(=O)C2CC2)CC1 + Cn1nnc2c(C(N)=O)ncn2c1=O	12.9	17.7	8.8	4.05	0.573	89.2	93.1	87	86.1	100	101	94	93.6	94.7	92.4	96.5	82.2	88	86.6	76	viability, T/C (second compound 1 µM, first compound 9.49 µM): 55.6%; viability, T/C (second compound 1 µM, first compound 30 µM): 34.2%; viability, T/C (second compound 3.16 µM, first compound 9.49 µM): 63.4%; viability, T/C (second compound 3.16 µM, first compound 30 µM): 38.5%; viability, T/C (second compound 10 µM, first compound 9.49 µM): 48%; viability, T/C (second compound 10 µM, first compound 30 µM): 28.3%; viability, T/C [24]: 56.8%; viability, T/C (second compound 31.6 µM, first compound 9.49 µM): 32.2%; viability, T/C (second compound 31.6 µM, first compound 30 µM): 21.4%; viability, T/C [27]: 74.6%; viability, T/C [28]: 58.2%; viability, T/C [29]: 44%; viability, T/C [30]: 29%; viability, T/C (second compound 100 µM, first compound 9.49 µM): 19.1%; viability, T/C (second compound 100 µM, first compound 30 µM): 17.2%
